Among the data in a melting point compilation (Tetko et al.; mined from patent text by program, amines drawn as free bases though some values may be those of a salt) are melting point values, retold here.

Each structure is given as a SMILES string.

Consider `CCOC(=O)c1ccc2c(c1)C(c1ccc(O)cc1)(c1ccc(O)cc1)c1ccccc1-2`, for which the melting point (usually the temperature of the solid-liquid transition) was 280 °C. The same measure for `O=C(O)CCC(=O)c1ccc2[nH]c3nc(Cl)ccc3c2c1`: 281 °C; for `CN(C)c1ccc(-c2[nH]c(-c3ccc([N+](=O)[O-])cc3)nc2C(=O)Nc2nccs2)cc1`: 250 to 251 °C; for `O=C(O)c1ccc(OCCCON=Cc2cn(Cc3ccccc3)c3ccccc23)c(-c2ccc(C(F)(F)F)cc2)c1`: 193 to 194 °C. The same measure for `COCc1nc(C=O)c[nH]1`: 100 to 103 °C; for `COc1ccc(C2(CCCCl)S(=O)(=O)CCCS2(=O)=O)cc1OC`: 183 to 184 °C.

`CCCCCCCCCCCCCCCCCC(=O)OCCOc1ccc(C2C(=O)Oc3c2cc(C(C)(C)C)cc3C(C)(C)C)cc1` (stereo not drawn) came in with a melting point of 54 to 60 °C. The same measure for `Nc1nc2ccc(NC(=O)CNC(=O)[C@@H](Cc3ccccc3)NS(=O)(=O)Cc3ccccc3)cc2s1`: 127 to 130 °C; for `N#Cc1ccccc1-c1ccc(O)cc1`: 176 to 178 °C. The value for `COC(=O)c1ccc(C2=NOC(c3cc(Cl)cc(Cl)c3)(C(F)(F)F)C2)c2ccccc12` (stereo not drawn) was 137 to 138 °C; that for `O=C1c2cc(OCc3ccccn3)ccc2OCC1Oc1cccnc1` (stereo not drawn) was 155 to 156 °C. The value for `CC(C)(O)c1cccc(-c2ccc3nc(-c4ccc(Cl)cc4)c(F)n3c2)c1` was 174 to 175 °C; that for `O=C(O)CCCCC(=O)c1ccc2cc(O)ccc2c1` was 191 to 193 °C; that for `CCCS(=O)C1(S(=O)(=O)NC(C)(C)C)C=CC=CN1` (stereo not drawn) was 138 to 140 °C. For the molecule `CC(C)CNC(=O)[C@H](C)C[C@H](O)[C@H](CC1CCCCC1)NC(=O)OC(C)(C)C`, the melting point lay within 125 to 126 °C. The same measure for `CCOC(=O)c1conc1-c1cccc(C#N)c1`: 135 to 137 °C; for `O=c1nc(-c2cccc(CSc3ccccn3)n2)sc2ccccc12`: 151 to 152 °C; for `COc1ccc2c(c1)CC(=O)N2N`: 136 to 138 °C.

`CNC(=O)Oc1ccc(NC(=O)C(Cl)(Cl)Cl)c(C)c1`: the melting point fell in the range of 185 to 187 °C. The same measure for `Cc1ccc(S(=O)(=O)OCC2COc3ccc4c(=O)ccoc4c3O2)cc1` (stereo not drawn): 190 to 191 °C; for `COc1ccc(S(=O)(=O)C2(C(=O)O)CCN(C)CC2)cc1`: 204 °C; for `CCOCOc1cc(C)ccc1-c1cc(-c2cccc([N+](=O)[O-])c2)c(C#N)c(N)n1`: 148 to 149 °C. Regarding `Oc1ccc2nc(-c3ccc(O)c(C45CC6CC(CC(C6)C4)C5)c3)[nH]c2c1`, the melting point fell in the range of 241 to 243 °C. The same measure for `O=[N+]([O-])c1ccc(Cc2nc3c(s2)CCCC3)cc1`: 118 to 119 °C; for `CN1Cc2c(C#Cc3ccccc3)ncn2-c2cccc(Br)c2C1=O`: 207 to 209 °C. The value for `CC(C)(C)C(O)(CC#CBr)C(Oc1ccc(Cl)cc1)n1cncn1` (stereo not drawn) was 156 to 160 °C. The value for `O=C1C=CC(=Cc2cccs2)O1` was 100 to 102 °C; that for `C=C1SC(=S)N(c2ccc3cc(-c4ccc(OC)c(C(C)(C)C)c4)ccc3c2)C1=O` was 281 to 284 °C; that for `CCOC(=O)c1cc(-c2ccc(F)cc2)[nH]n1` was 148 to 150 °C. As for `Nc1nc2c(ncn2C2C=CC(CO)O2)c(=O)[nH]1` (stereo not drawn), the melting point was > 250 °C. The value for `CC1CCC(=O)N1c1cc(-c2ccnc(Nc3cccc(Cl)c3)n2)ccn1` (stereo not drawn) was 162 to 164 °C; that for `CC1(C)CCn2c(nc(-c3ccncn3)cc2=O)N1CC(=O)c1ccccc1` was 203 to 205 °C; that for `Cc1cc(C)nc(NC(=O)NS(=O)(=O)C2CC3C=CC2O3)n1` (stereo not drawn) was 125 to 145 °C.

On to `CC1(C)C(=O)OC2=C1CC(OS(C)(=O)=O)C=C2` (stereo not drawn), for which the melting point was in the range of 120 to 121 °C. The same measure for `Cc1cc(=O)n2nc(S(=O)(=O)Cc3ccc(Cl)cc3)sc2n1`: 192 to 194 °C; for `C[C@@H](N1CCN(c2ccc(OCC(F)(F)F)cc2)C1=O)[C@@]1(c2ccc(F)cc2F)CO1`: 131 to 132 °C; for `CCCCCCC(=N)NC(=S)Nc1ccc(OC)cc1`: 70 to 72 °C. The same measure for `CCCCN1C(=O)c2c(c(C)nn2C)Nc2ncccc21`: 144 to 146 °C. The value for `NC(C=Cc1cccs1)=NO` was 92 °C; that for `O=C(O)C(Cc1ccccc1)Nc1nccc(-c2ccc(OCc3ccccc3)cc2)n1` (stereo not drawn) was 174 °C. `COc1ccc2c3c([nH]c2c1)C(=S)C(CC1CCN(C(=O)OC(C)(C)C)CC1)C3` (stereo not drawn) returned a melting point of 188 to 189 °C.

Molecule `Cc1ccc2[nH]c(CO)cc2c1C` registered a melting point of 159 °C. Take `COc1ccc(NC(=S)Nc2ccc(NNC=O)c(OC)c2)cc1`: the melting point was 160 to 162 °C. The same measure for `CC1(C)CCC(C)(C)c2cc(C(=O)SCc3ccc(C(=O)O)cc3)ccc21`: 150 to 151 °C; for `CC(=O)Nc1ccc(NCCOS(C)(=O)=O)c([N+](=O)[O-])c1`: 166 °C; for `CCOC(=O)Oc1ccc(S(=O)(=O)N2c3c(C)cccc3-n3cccc3C2CC)cc1` (stereo not drawn): 104 °C. For `OC(Cn1ccnc1)(c1ccc(Cl)cc1)C1(Oc2ccc(Cl)cc2)CC1` (stereo not drawn), the melting point lay in the range of 172 to 173 °C. The same measure for `CCOC(=O)c1ccc(NC(=O)CCCCCc2ccc(Cl)cc2)cc1`: 107 to 108 °C; for `COC(=O)c1cc2cc([N+](=O)[O-])ccc2o1`: 168 °C; for `Cc1c(C)c2c(c(C)c1NC(=O)CC(C)(C)C)C(c1ccc(F)cc1)C(C)(C)O2` (stereo not drawn): 194 to 195 °C. The same measure for `O=C(Cc1ccc(OCc2ccccc2)cc1)Nc1c(C(=O)O)oc2cc(-c3ccc(Cl)cc3)ccc12`: 211 to 212 °C; for `O=C(NCCc1ccc(O)c(O)c1)C12CC3CC(CC(C3)C1)C2`: 198 to 200 °C. On to `Cc1cc2nc(O)c(-c3c(F)cc(F)cc3F)c(O)n2n1`, for which the melting point worked out at 304 °C. The value for `Cc1cc(-c2cccs2)nc(Nc2ccc(C(C)C)cc2Br)n1` was 98 to 101 °C; that for `Cc1nc(-c2ccccc2)nc(-c2ccncc2)c1NC(=O)OC(C)(C)C` was 166 to 167 °C; that for `COc1cc(Cl)ccc1CBr` was 42 to 45 °C.

The molecule `O=S(=O)(c1cccc(-c2cc(-c3nc(-c4ccc(C(F)(F)F)cc4)cc(C(F)(F)F)n3)ccn2)c1)N1CCOCC1` displayed a melting point of 202 °C. `Nc1ncccc1NCc1ccc(OCc2cccc(F)c2)cc1`: the melting point lay within 91 to 93 °C. The same measure for `Cn1ncnc1COc1nn2c(-c3ccccc3F)nnc2cc1C12CCC(C1)C2`: 198 to 200 °C. The same measure for `O=S(=O)(c1ccc(O)cc1)c1ccc(Cl)cc1`: 143 to 145 °C; for `CCOc1cc2ncc(C#N)c(Nc3ccc(F)c(Cl)c3)c2cc1NC(=O)C=CCN(C)C`: 196 to 198 °C. As for `O=C(OC1CCCCC1)c1ncn2c1[C@@H]1CCN1C(=O)c1c(I)cccc1-2`, the melting point was 124 to 125 °C. The same measure for `CC(C)(O)c1ccc(-c2ccc(C(C)(C)O)cc2)cc1`: 161 °C.
